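Grown in 96-well plates, cells were treated for 48 hours with each compound at five concentrations. Insufficient inhibition: endpoint recorded as highest concentration tested. GI50 = concentration required for 50% inhibition of growth.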 Active and inactive are the calls of the source. No stated cut-off is given here; in the data, active = GI50 up to about 1.1 µM and inactive = higher.
What was measured:
Test in all cases: inhibition of tumour cell growth, NCI panel, 48 h
SNB-19 = system: SNB-19
NCI/ADR-RES = system: NCI/ADR-RES
MCF7 = system: MCF7
NCI-H226 = system: NCI-H226
SK-MEL-2 = system: SK-MEL-2
HOP-62 = system: HOP-62
HCC 2998 = system: HCC 2998
BT-549 = system: BT-549
OVCAR-3 = system: OVCAR-3
HOP-92 = system: HOP-92
NCI-H23 = system: NCI-H23
NCI-H522 = system: NCI-H522
KM12 = system: KM12
SF-295 = system: SF-295
M14 = system: M14
OVCAR-4 = system: OVCAR-4
SF-268 = system: SF-268
NCI-H460 = system: NCI-H460
Malme-3M = system: Malme-3M
RXF 393 = system: RXF 393

Measured: GI50

OCC(O)COCn1cc(Cn2ncc3c(O)ncnc32)nn1 (centres undefined)
inactive: SNB-19 > 100 µM | NCI/ADR-RES > 100 µM | MCF7 > 100 µM | NCI-H226 > 100 µM | SK-MEL-2 > 100 µM | HOP-62 > 100 µM | HCC 2998 > 100 µM | BT-549 > 100 µM | OVCAR-3 > 100 µM | HOP-92 > 100 µM | NCI-H23 > 100 µM | NCI-H522 28.5 µM | KM12 > 100 µM | SF-295 > 100 µM | M14 > 100 µM | OVCAR-4 > 100 µM

Cc1cccc2c(N)c3cccc(C(=O)NCC[N+](C)(C)Cc4ccc(S(C)(=O)=O)cc4)c3nc12
inactive: SNB-19 18.7 µM | NCI/ADR-RES > 100 µM | MCF7 11.5 µM | SF-268 25.1 µM | NCI-H226 98.2 µM | SK-MEL-2 98.4 µM | NCI-H460 4.3 µM | HOP-62 27.7 µM | HCC 2998 46.7 µM | Malme-3M 38.5 µM | BT-549 > 100 µM | OVCAR-3 67 µM | HOP-92 70 µM | NCI-H23 21.8 µM | KM12 64.6 µM | SF-295 89.1 µM | RXF 393 76.7 µM | M14 > 100 µM | OVCAR-4 41.4 µM

C[C@]12CC[C@H]3[C@@H](CCC4=CC(=O)CC[C@@]43C)[C@@H]1CC[C@@H]2C(=O)Nc1ccc([N+](=O)[O-])c(C(F)(F)F)c1
inactive: SNB-19 18.5 µM | NCI/ADR-RES 13.3 µM | MCF7 16.3 µM | SF-268 21.4 µM | NCI-H226 21.2 µM | SK-MEL-2 17.5 µM | NCI-H460 17.3 µM | HOP-62 29 µM | HCC 2998 12.9 µM | Malme-3M 15.6 µM | BT-549 19.4 µM | OVCAR-3 22.8 µM | HOP-92 39.8 µM | NCI-H23 > 10 µM | NCI-H522 17.2 µM | KM12 16 µM | SF-295 17.1 µM | OVCAR-4 15.3 µM

COc1ccc(/C=C/C(=O)CCN2CCN(CCC(=O)/C=C/c3ccc(OC)cc3)CC2)cc1
inactive: SNB-19 43.6 µM | NCI/ADR-RES 36.4 µM | MCF7 3.56 µM | SF-268 17.4 µM | NCI-H226 22.3 µM | SK-MEL-2 19.4 µM | NCI-H460 11.1 µM | HOP-62 20.6 µM | HCC 2998 12.2 µM | Malme-3M 18.7 µM | BT-549 18.6 µM | OVCAR-3 11.4 µM | HOP-92 18.6 µM | NCI-H23 15.6 µM | KM12 10.7 µM | SF-295 8.26 µM | RXF 393 4.25 µM | M14 15.3 µM | OVCAR-4 22.8 µM

CC(C)/C(Cl)=N\OC(=O)Nc1ccc(F)cc1F
inactive: SNB-19 19.5 µM | NCI/ADR-RES 7.05 µM | MCF7 3.43 µM | SF-268 19.5 µM | NCI-H226 15.8 µM | SK-MEL-2 13.6 µM | NCI-H460 20.7 µM | HOP-62 17.6 µM | HCC 2998 18.3 µM | Malme-3M 1.66 µM | BT-549 13 µM | OVCAR-3 2.68 µM | HOP-92 1.82 µM | NCI-H23 14.3 µM | KM12 17.7 µM | SF-295 15.1 µM | RXF 393 3.72 µM | M14 2.98 µM | OVCAR-4 3.76 µM

O=C(Nc1cccc2ccccc12)c1cc2ccccc2oc1=O
inactive: SNB-19 22 µM | NCI/ADR-RES 60.3 µM | MCF7 > 100 µM | SF-268 23.3 µM | NCI-H226 21.8 µM | SK-MEL-2 40.6 µM | NCI-H460 > 100 µM | HOP-62 14.5 µM | HCC 2998 > 100 µM | Malme-3M 12.5 µM | BT-549 > 100 µM | OVCAR-3 70.5 µM | HOP-92 > 100 µM | NCI-H23 36.7 µM | KM12 > 100 µM | RXF 393 22.6 µM | M14 > 100 µM | OVCAR-4 78 µM
